Test [1] deals with Induced myeloid leukemia cell differentiation protein Mcl-1 (Homo sapiens, UniProt Q07820). The test is classed as functional.
The target in test [2] is T1, Carboxy-terminal domain RNA polymerase II polypeptide A small phosphatase 1 (Homo sapiens, UniProt Q9GZU7).
T1 sequence (Q9GZU7 whole entry): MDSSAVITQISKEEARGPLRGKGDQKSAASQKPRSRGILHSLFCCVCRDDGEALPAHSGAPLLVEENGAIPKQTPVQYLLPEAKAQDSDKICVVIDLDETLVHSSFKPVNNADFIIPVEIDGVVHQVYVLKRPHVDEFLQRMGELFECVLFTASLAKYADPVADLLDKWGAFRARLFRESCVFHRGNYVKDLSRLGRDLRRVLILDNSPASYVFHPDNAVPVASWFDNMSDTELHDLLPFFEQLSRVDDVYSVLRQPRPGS
In words: inhibitors of CTDSP1, concentration-response testing, biochemical assay, absorbance-based, actives from ultra-high-throughput screening (AID 540297). It is filed as functional.

The next test concerns the target T2, Caspase-6 (Homo sapiens, UniProt P55212).
T2 sequence (P55212 whole entry): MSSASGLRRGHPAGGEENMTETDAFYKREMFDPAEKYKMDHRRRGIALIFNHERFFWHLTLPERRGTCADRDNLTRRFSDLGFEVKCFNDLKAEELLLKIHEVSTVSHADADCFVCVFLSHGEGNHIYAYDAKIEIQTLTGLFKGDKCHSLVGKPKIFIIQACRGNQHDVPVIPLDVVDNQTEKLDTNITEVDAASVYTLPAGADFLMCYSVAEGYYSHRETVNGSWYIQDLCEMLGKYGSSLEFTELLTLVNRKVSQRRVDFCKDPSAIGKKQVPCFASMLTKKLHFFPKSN
Description: human caspase-6 inhibitors, dose response, biochemical, VEID-R110 fluorescence, cherry-pick (AID 720632).

The target in another test is Caspase-7 (Homo sapiens, UniProt P55210). In words: human caspase-7 inhibitors, dose response, selectivity assay for caspase-6 inhibitor project, biochemical, DEVD-R110 fluorescence, cherry-pick (AID 743295). The test is classed as […].
Caspase-7, sequence (P55210 24-198 limits assumed): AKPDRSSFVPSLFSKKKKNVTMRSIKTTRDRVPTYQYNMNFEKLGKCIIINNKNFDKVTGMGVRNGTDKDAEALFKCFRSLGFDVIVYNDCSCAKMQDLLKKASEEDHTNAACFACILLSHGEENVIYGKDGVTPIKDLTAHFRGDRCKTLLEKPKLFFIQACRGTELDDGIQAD
Caspase-7, sequence (P55210 207-303 limits assumed): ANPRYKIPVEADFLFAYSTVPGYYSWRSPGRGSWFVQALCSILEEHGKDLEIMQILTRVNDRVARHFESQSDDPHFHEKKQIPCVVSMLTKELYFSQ
Test [3] is described as follows: Luminescence Cell-Based Dose Response HTS to Identify Activators of Luciferase Translation or Activity in H4 […] Cells. [Related pubchem assays: 1829 (Project Summary), 1814 (Primary HTS)]. It is filed as functional.
The next test has as its system H4. In words: Luminescence Cell-Based Dose Response HTS to Identify Activators of 5'UTR Stem-Loop Driven Prion Protein mRNA Translation in H4 Neuroglioblastoma Cells. [Related pubchem assays: 1829 (Project Summary), 1814 (Primary HTS)]. The test is classed as functional. The following applies: Homo sapiens.
Another test has as its target T3, Protein skinhead-1 (Caenorhabditis elegans, UniProt P34707).
T3 sequence (P34707 whole entry): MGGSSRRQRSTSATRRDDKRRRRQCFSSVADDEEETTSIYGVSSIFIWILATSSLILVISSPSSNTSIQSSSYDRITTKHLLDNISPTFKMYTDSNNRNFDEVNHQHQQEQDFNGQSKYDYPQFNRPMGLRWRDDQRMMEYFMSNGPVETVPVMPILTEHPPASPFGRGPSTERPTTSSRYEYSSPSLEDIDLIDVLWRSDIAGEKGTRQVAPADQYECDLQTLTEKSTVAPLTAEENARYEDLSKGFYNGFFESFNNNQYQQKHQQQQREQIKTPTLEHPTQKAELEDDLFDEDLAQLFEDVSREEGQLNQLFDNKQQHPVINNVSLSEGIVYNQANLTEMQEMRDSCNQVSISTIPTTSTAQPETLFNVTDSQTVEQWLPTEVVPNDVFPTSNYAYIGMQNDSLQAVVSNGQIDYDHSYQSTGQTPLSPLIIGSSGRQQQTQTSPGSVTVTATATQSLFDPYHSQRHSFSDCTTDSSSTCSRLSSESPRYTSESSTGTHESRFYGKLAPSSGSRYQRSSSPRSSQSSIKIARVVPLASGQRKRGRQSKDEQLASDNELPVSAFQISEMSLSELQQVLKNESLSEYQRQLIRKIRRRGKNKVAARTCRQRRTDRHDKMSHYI
It is filed as functional.

The target in test [4] is T4, Oxysterols receptor LXR-beta (Homo sapiens, UniProt P55055).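 Further: Cell-based luminescence dose-response assay of agonist activity at LXR, run as a confirmatory counterscreen to a daf-12 agonist screen; HEK293 cells with Gal4-LXR fusion and GAL4-driven luciferase reporter; agonist potency from rising luciferase signal of a Gal4-LXR reporter.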
T4 sequence (P55055 whole entry): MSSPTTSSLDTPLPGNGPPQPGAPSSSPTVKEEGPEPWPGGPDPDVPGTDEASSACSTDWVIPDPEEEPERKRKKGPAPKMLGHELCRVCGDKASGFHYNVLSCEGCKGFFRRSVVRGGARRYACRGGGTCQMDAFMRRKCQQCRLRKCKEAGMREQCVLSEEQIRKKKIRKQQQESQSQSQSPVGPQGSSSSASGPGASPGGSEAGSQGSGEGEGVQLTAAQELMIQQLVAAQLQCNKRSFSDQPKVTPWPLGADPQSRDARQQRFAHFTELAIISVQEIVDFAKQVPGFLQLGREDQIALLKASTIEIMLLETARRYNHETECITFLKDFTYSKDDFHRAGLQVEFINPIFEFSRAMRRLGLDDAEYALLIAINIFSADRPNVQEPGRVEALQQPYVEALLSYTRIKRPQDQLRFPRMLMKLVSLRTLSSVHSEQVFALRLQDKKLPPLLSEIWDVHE
The test is classed as functional, cell-based.

The target in test [5] is Glucose-6-phosphate 1-dehydrogenase (Homo sapiens, UniProt P11413). Description: human G6PD enzyme inhibitors, dose response, selectivity assay for P. falciparum G6PD inhibitor project, biochemical, fluorescence (AID 504792). It is filed as functional.
Glucose-6-phosphate 1-dehydrogenase, sequence (P11413 whole entry): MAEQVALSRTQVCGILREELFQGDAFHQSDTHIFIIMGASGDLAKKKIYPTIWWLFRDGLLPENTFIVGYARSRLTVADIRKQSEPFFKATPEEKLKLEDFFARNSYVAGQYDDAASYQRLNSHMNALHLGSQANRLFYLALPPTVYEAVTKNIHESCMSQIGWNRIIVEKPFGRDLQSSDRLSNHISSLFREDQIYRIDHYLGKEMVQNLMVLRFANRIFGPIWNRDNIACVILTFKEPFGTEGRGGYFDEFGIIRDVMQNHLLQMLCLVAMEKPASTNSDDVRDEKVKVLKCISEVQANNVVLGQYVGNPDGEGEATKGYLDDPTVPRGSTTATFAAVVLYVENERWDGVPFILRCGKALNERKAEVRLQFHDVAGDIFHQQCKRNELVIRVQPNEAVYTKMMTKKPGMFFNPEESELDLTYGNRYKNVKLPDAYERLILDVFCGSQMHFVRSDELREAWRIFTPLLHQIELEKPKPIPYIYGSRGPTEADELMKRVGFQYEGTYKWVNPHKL
Test [6] addresses Dual specificity tyrosine-phosphorylation-regulated kinase 1A (Rattus norvegicus, UniProt Q63470). The test is classed as biochemical, Homo sapiens.
Test [7] is described as follows: HepG2 cell cytotoxicity, dose response, cytotoxicity control, ATP luminescence, cherry-pick, activator set 2 (AID 1053143). It is filed as functional, cell-based.
A further test deals with fMet-Leu-Phe receptor (Homo sapiens, UniProt P21462). In words: FPR ligands, dose response (AID 519). It is filed as functional.
fMet-Leu-Phe receptor, sequence (P21462 whole entry): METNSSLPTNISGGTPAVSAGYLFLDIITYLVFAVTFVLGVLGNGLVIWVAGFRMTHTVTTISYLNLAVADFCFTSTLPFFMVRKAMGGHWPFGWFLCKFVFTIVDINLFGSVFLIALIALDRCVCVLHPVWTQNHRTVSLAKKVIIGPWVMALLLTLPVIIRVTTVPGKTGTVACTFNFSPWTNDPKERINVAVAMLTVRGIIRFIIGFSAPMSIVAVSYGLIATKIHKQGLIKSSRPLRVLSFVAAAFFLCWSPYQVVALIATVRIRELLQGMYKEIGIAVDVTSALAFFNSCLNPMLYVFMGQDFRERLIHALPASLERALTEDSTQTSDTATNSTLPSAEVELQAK
For test [8], the target named is Luciferin 4-monooxygenase (Photinus pyralis, UniProt P08659). In words: firefly luciferase enzyme inhibitors, dose response, biochemical, luminescence (AID 1891).
Luciferin 4-monooxygenase, sequence (P08659 whole entry): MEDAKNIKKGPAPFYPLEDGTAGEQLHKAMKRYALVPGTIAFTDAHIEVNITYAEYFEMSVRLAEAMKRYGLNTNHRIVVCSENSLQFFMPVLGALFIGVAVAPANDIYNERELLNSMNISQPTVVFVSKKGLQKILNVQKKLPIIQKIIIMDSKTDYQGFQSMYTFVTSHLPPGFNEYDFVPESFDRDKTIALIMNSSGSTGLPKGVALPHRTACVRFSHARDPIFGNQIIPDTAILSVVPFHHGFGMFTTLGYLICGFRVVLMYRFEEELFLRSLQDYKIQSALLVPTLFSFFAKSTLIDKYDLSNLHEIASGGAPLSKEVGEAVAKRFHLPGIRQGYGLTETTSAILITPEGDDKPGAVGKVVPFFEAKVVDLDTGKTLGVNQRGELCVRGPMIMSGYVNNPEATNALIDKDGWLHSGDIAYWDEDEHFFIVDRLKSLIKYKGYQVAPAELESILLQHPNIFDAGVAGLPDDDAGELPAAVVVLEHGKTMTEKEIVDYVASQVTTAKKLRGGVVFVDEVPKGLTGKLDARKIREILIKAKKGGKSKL
A short description of test [9]: Luminescence Cell-Based Dose Confirmation HTS to Identify Inhibitors of Platelet Dense Granule Release. [Related pubchem assays: 1663 (Primary HTS), 1678 (Summary of Project)]. It is filed as functional.

SMILES strings stand for the structures. Calls of active or inactive are those of the source.

Induced myeloid leukemia cell differentiation protein Mcl-1, sequence (Q07820 whole entry, the tested form may be a part): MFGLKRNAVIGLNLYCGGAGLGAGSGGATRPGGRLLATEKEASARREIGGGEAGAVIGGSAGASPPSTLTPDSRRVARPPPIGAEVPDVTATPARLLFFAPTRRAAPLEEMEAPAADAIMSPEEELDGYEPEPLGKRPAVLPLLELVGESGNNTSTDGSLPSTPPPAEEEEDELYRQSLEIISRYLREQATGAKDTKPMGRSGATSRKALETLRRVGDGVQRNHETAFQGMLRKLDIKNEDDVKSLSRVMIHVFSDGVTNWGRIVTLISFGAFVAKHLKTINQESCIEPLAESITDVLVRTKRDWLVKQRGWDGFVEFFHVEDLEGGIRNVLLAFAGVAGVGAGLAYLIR

Usually IC50 stands for the concentration that gives 50% inhibition. For orientation: AC50 means the midpoint of the concentration-response curve, whichever way the signal moves. Regarding `CCCSC1=N/C(=C\c2ccc([N+](=O)[O-])o2)C(=O)S1`, the IC50 is 3.88 µM (active) in test [1] and 4.92 µM (active) in [2]. In addition, the AC50 was 2.93 µM (active) at Caspase-6 and 45.9 µM (active) at Caspase-7.
Usually EC50 stands for the midpoint of the concentration-response curve. Consider `Cc1nc(NC(=O)c2cccs2)ccc1Br`, for which the 50% effective concentration (EC50) in test [3] was 13.2 µM (active); in the test with H4, 0.129 µM (active); in test [4], > 67.5 µM (inactive); in the test “cells” it was > 67.5 µM (inactive). For the same compound, the IC50 on Protein skinhead-1 is 24.4 µM (active).
`CN1/C(=C\C(=O)c2cccs2)Sc2ccccc21`: in test [5], the IC50 was > 80 µM (inactive). For the same compound, the EC50 (in test [4]; in “cells”) was > 67.5 µM (inactive) throughout.
For the compound `O=[N+]([O-])c1ccccc1-c1cc(-c2ccccc2O)n[nH]1`, the AC50 in [6] was 7.59 µM (active); in test [7], 26 µM (active).
As a reminder, the Ki is a dissociation constant, usually derived from enzyme kinetics or from competition with a known ligand. As to `COc1cccc(C(=O)C2=C(O)C(=O)N(Cc3cccnc3)C2c2ccco2)c1` (stereo not drawn), the Ki on fMet-Leu-Phe receptor was > 66.7 µM (inactive).
Regarding `CCOC(=O)c1sc(NC(=O)c2sccc2C)cc1C`, the 50% effective concentration (EC50) in test [8] was 0.409 µM (active); in test [9], 3.04 µM (active). In test [7], the concentration at half-maximal activity (AC50) is 12.8 µM (active).

(Values after ChEMBL document CHEMBL1201862, “PubChem BioAssay data set” (2004).)
